From patent US7750005B2, “Substituted hexahydropyrazino [1,2-A] pyrimidine-4,7-dione derivatives, process for their preparation and their use as medicaments” (Sanofi-Aventis Deutschland GmbH, priority 2003, dated 2010) come the findings set out here.

Molecules are shown by their SMILES.

For this experiment, the system named is female NMRI mice. The experiment is described as follows: Anorectic effect: cumulative condensed milk consumption after oral administration. It is filed as in vivo. The settings on record: food withdrawn 24 hours, oral dose 50 mg/kg by gavage. The procedure:
The anorectic effect was tested on female NMRI mice. After withdrawal of food for 24 hours, the test product was administered by gavage. The animals were housed singly with free access to drinking water and were offered condensed milk 30 minutes after administration of the product. The condensed milk consumption was determined every half hour for 7 hours, and the general wellbeing of the animals was observed. The measured milk consumption was compared with the vehicle-treated control animals.

In the case of `COc1ccc(Cl)cc1S(=O)(=O)N1CCC(=O)N2C(Cc3ccc(Cl)cc3)C(=O)N(C(C)C)CC21` (centres unmarked) [Example 2, 6-(4-Chlorobenzyl)-1-(5-chloro-2-methoxybenzenesulfonyl)-8-isopropylhexahydropyrazino[1,2-a]pyrimidine-4,7-dione], the “Reduction in the cumulative milk consumption as % of the control” value (milk consumption over 7 hours) was 11 % of the control. Also, under “over 7 hours, N=10, control animals 5.48 ml”, the “cumulative milk consumption of the treated animals” value is listed as 10/4.90 ml.
